{
  "source": "patent US20210346401A1",
  "about": "“REGULATOR OF TGR5 SIGNALING AS IMMUNOMODULATORY AGENT” (YICHANG HUMANWELL PHARMACEUTICAL CO., LTD, priority 2018, published 2021)",
  "key": {"THP1 cells": {"system": "THP1 cells", "assay": "Effects of kinase inhibitors on virus-induced expression of BA metabolism genes and IFNB1 (qPCR)", "type": "cell-based, human", "settings": "inhibitor treatment, then HSV-1 or SeV for 4 hours"}, "Raw264.7 cells [1]": {"system": "Raw264.7 cells", "assay": "Induction of type I IFNs and other antiviral genes by BAs (qPCR)", "type": "cell-based", "settings": "indicated concentrations of BAs", "procedure": "D. Induction of type I IFNs and other antiviral genes by BAs. Raw264.7 cells were treated by the indicated concentrations of the indicated BAs, followed by qPCR analysis of the expression of the indicated genes. L. Induction of type I IFNs and other antiviral genes by BAs. Raw264.7 cells were treated with LCA (200 μM) or CDCA (200 μM) for the indicated times, followed by qPCR analysis of the expression of the indicated genes."}, "Raw264.7 cells [2]": {"system": "Raw264.7 cells", "assay": "Induction of phosphorylation of TBK1 and IRF3 by BAs (immunoblotting)", "type": "cell-based", "settings": "indicated concentrations of CDCA and LCA", "procedure": "E. Induction of phosphorylation of TBK1 and IRF3 by BAs. Raw264.7 cells were treated by the indicated concentrations of CDCA and LCA, followed by immunoblotting analysis with the indicated antibodies. Cells were lysed with RIPA buffer plus complete protease inhibitors and 20 mM NEM, and lysates were sonicated for 1 min. The lysates were centrifuged at 14000 rpm for 20 min at 4° C. The supernatants were incubated with respective antibodies at 4° C. overnight before protein G beads were added for 2 h. The beads were washed with cold PBS plus 0.5 M NaCl for three times followed by an additional wash with PBS. Proteins were separated by 8% SDS-PAGE, followed by immunoblot analysis with the indicated antibodies."}, "VSV-GFP": {"system": "VSV-GFP", "type": "cell-based"}, "monocytes": {"system": "monocytes", "settings": "monocytes in vitro; cited from earlier work"}, "TGR5": {"system": "TGR5", "settings": "Tgr5+/+ macrophages (BMDMs); infected half an hour, then treatment for 6 hours"}, "SRC": {"system": "SRC", "assay": "Induction of pY416 of SRC by INT-777 and BA treatments (immunoblotting)", "type": "cell-based", "settings": "HEK293 cells, treatment for 1 hours", "procedure": "G. Induction of pY416 of SRC by INT-777 and BA treatments. HEK293 cells were treated with DMSO, INT-777 or the indicated BAs for 1 hours, followed by immunoblotting analysis with the indicated antibodies.\nCells were lysed with RIPA buffer plus complete protease inhibitors and 20 mM NEM, and lysates were sonicated for 1 min. The lysates were centrifuged at 14000 rpm for 20 min at 4° C. The supernatants were incubated with respective antibodies at 4° C. overnight before protein G beads were added for 2 h. The beads were washed with cold PBS plus 0.5 M NaCl for three times followed by an additional wash with PBS. Proteins were separated by 8% SDS-PAGE, followed by immunoblot analysis with the indicated antibodies."}},
  "data": [
    {"smiles": "Cc1ccc2nc(NCCN)c3ncc(C)n3c2c1", "note": "[BMS-345541]", "values": [
      {"measurement": "HSV-1- and SeV-induced transcription of CYP7A1, CYP7B1, CYP27A1 and OATP genes", "setting": "THP1 cells", "value": "abolished"}
    ]},
    {"smiles": "C[C@H](CCC(=O)O)[C@H]1CC[C@H]2[C@@H]3[C@H](O)C[C@@H]4C[C@H](O)CC[C@]4(C)[C@H]3CC[C@]12C", "note": "[CDCA, chenodeoxycholic acid]", "values": [
      {"measurement": "transcription of downstream innate immunity genes including IFNB1, CXCL10 and ISG56", "setting": "Raw264.7 cells [1]", "value": "potently induced"},
      {"measurement": "phosphorylation of TBK1 and IRF3", "setting": "Raw264.7 cells [2]", "value": "induced phosphorylation"},
      {"measurement": "VSV-GFP replication", "setting": "VSV-GFP", "value": "dramatically inhibited"},
      {"measurement": "production of interleukin-1, interleukin-6 and tumor necrosis factor-α", "setting": "monocytes", "value": "inhibits"},
      {"measurement": "HSV-1- and SeV-induced transcription of Ifnb1", "setting": "TGR5", "value": "potentiated"}
    ]},
    {"smiles": "CC[C@H]1[C@@H](O)[C@@H]2[C@H](C[C@H](O)[C@]3(C)[C@@H]([C@H](C)C[C@H](C)C(=O)O)CC[C@@H]23)[C@@]2(C)CC[C@@H](O)C[C@@H]12", "note": "[INT-777]", "values": [
      {"measurement": "phosphorylation of SRC at Y416", "setting": "SRC", "value": "induced phosphorylation"},
      {"measurement": "HSV-1- and SeV-induced transcription of Ifnb1", "setting": "TGR5", "value": "potentiated"}
    ]}
  ]
}
